Earlier results in patent publication US20200319191A1, “MOLECULAR PROFILING FOR CANCER” (Caris MPI, Inc., priority 2015, published 2020).

Molecular target: T1, ribonucleotide reductase (Homo sapiens, UniProt P23921)
T1 sequence (P23921 1-792): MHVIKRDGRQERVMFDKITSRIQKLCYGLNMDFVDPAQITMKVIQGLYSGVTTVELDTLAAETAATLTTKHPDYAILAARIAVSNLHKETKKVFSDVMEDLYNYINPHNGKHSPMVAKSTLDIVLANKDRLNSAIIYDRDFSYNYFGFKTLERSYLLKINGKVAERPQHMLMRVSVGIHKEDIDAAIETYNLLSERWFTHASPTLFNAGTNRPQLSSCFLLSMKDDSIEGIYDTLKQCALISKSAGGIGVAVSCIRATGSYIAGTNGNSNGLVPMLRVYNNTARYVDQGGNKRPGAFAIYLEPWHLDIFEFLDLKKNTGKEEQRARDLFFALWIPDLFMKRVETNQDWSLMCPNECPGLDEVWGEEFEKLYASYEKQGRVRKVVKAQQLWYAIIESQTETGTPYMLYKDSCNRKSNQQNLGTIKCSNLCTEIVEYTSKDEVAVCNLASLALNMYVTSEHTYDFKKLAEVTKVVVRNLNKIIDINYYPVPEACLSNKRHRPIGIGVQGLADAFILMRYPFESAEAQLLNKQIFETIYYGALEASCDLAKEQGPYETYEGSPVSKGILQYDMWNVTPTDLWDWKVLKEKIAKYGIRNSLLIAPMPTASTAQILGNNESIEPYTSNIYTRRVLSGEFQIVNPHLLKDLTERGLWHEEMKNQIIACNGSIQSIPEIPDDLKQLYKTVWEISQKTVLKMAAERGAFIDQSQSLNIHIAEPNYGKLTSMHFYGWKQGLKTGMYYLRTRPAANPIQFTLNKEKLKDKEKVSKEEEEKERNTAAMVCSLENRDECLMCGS

## Nc1ccn([C@@H]2O[C@H](CO)[C@@H](O)C2(F)F)c(=O)n1 [Gemcitabine]
  effect on ribonucleotide reductase activity: synthesis. Gemcitabine is a deoxycitidine analogue which inhibits ribonucleotide reductase
